Patent publication US20130102595A1 (Curis, Inc., priority 2011, published 2013)

Tests used:
[1] = test system: CaPan1; assay: Cell proliferation assay (CellTiter-Glo); format: cell-based; conditions: Homo sapiens, CAPAN-1; Pancreas; 72 hours, 0.5% fetal bovine serum; read-out: antiproliferative activity IC50, CaPan1
Description: (§1) Cell Proliferation Assay:
(§2) Cancer cell lines were plated at 5,000 to 10,000 per well in 96-well flat bottomed plates with various concentration of compounds. The cells were incubated with compounds for 72 hours in the presence of 0.5% of fetal bovine serum. Growth inhibition was accessed by adenosine triphosphate (ATP) content assay using Promega CellTiter-Glo kit. Promega CellTiter-Glo kit is an ATP monitoring system based on firefly luciferase. Briefly, 16 μl of mammalian cell lysis and substrate solution was added to 84 μl of culture medium per well to lyse the cells and stabilize the ATP. The mixture was shaken and incubated for 30 minutes and subsequently the luminescence was measured.

[2] = test system: WiDr; assay: Cell proliferation assay (CellTiter-Glo); format: cell-based; conditions: Homo sapiens, Colon, 72 hours, 0.5% fetal bovine serum, read-out: antiproliferative activity IC50, WiDr
Description: as §1, §2

[3] = test system: CaPan2; assay: Cell proliferation assay (CellTiter-Glo); format: cell-based; conditions: Homo sapiens, Capan-2; Pancreas; 72 hours, 0.5% fetal bovine serum; read-out: antiproliferative activity IC50, CaPan2
Description: as §1, §2

[4] = test system: SW1990; assay: Cell proliferation assay (CellTiter-Glo); format: cell-based; conditions: Homo sapiens, Pancreas, 72 hours, 0.5% fetal bovine serum, read-out: antiproliferative activity IC50, SW1990
Description: as §1, §2

[5] = test system: Calu6; assay: Cell proliferation assay (CellTiter-Glo); format: cell-based; conditions: Homo sapiens, Calu-6; NSCLC; 72 hours, 0.5% fetal bovine serum; read-out: antiproliferative activity IC50, Calu6
Description: as §1, §2

[6] = test system: MDA-MB-231; assay: Cell proliferation assay (CellTiter-Glo); format: cell-based; conditions: Homo sapiens, Breast, 72 hours, 0.5% fetal bovine serum, read-out: antiproliferative activity IC50, MDA-MB-231
Description: as §1, §2

[7] = test system: MiaPaca1; assay: Cell proliferation assay (CellTiter-Glo); format: cell-based; conditions: Pancreas; 72 hours, 0.5% fetal bovine serum; read-out: antiproliferative activity IC50, MiaPaca1
Description: as §1, §2

[8] = test system: CFPAC-1; assay: Cell proliferation assay (CellTiter-Glo); format: cell-based; conditions: Homo sapiens, Pancreas, 72 hours, 0.5% fetal bovine serum, read-out: antiproliferative activity IC50, CFPAC-1
Description: as §1, §2

[9] = test system: PANC-1; assay: Cell proliferation assay (CellTiter-Glo); format: cell-based; conditions: Homo sapiens, Pancreas, 72 hours, 0.5% fetal bovine serum, read-out: antiproliferative activity IC50, PANC-1
Description: as §1, §2

[10] = target: T1, PI3Kα (p110α/p85α) (Homo sapiens, UniProt P42336); assay: PI3Kα ADP-Glo assay; format: biochemical; conditions: 20 μM PIP2, 10 μM ATP, 30 minutes
T1 construct: GST (N); made in house; host or cells: Baculovirus-infected Sf9 cells
Method in brief: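 Luminescent ADP-Glo detection, after depletion of residual ATP, quantified ADP made by PI3Kα phosphorylating 20 μM PIP2 at 10 μM ATP. The kinase step ran 30 min at room temperature in HEPES pH 7.4 with MgCl2, DTT and orthovanadate, using baculovirus/Sf9-expressed full-length p110α/p85α complex.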

[11] = test system: HDACs (HeLa cell nuclear extracts); assay: HDAC enzymatic activity, Biomol Color de Lys system; format: biochemical; conditions: 1 hour, 25° C.
Method in brief: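 IC50 from sigmoidal fit of developer-terminated fluorescence (ex 350-380/em 440-460 nm). Reaction: 1 h at room temperature (25 °C), HeLa nuclear extract as HDAC source, artificial substrate, buffer of 50 mM Tris/Cl pH 8.0 with 137 mM NaCl, 2.7 mM KCl and 1 mM MgCl2.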

[12] = test system: SWI-116; assay: Cell proliferation assay (CellTiter-Glo); format: cell-based; conditions: Colon; 72 hours, 0.5% fetal bovine serum; read-out: antiproliferative activity IC50, SWI-116
Description: as §1, §2

[13] = target: T2, mTor serine/threonine protein kinase (Homo sapiens, UniProt P42345); assay: mTor kinase radioisotope assay; format: biochemical; conditions: 70 uM ATP, 40 minutes; read-out: m-TOR IC50
T2 construct: FLAG; made in house; host or cells: Baculovirus expression system in Sf21 cells
Method in brief: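 FLAG-tagged full-length recombinant human mTor from baculovirus/Sf21, incubated with p70S6K C-terminal fragment (2 mg/ml) and 70 uM ATP plus 33P-ATP tracer in 50 mM HEPES pH 7.5, 3 mM MnCl2, 40 min at room temperature. Phosphoric acid stop, filtermat capture, scintillation counting; IC50 from sigmoidal dose-response fit.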

[14] = target: T3, PI3Kβ (p110β/p85α) (Homo sapiens, UniProt P42338); assay: PI3Kβ ADP-Glo assay; format: biochemical; conditions: 20 μM PIP2, 10 μM ATP, 90 minutes
T3 construct: His (N); made in house; host or cells: Baculovirus-infected Sf9 cells
Description: (B) an In Vitro Assay which Determines the Ability of a Test Compound to Inhibit PI3Kβ.
Activity of PI3Kβ was measured using ADP-Glo assay from Promega. […], a complex of N-terminal His-tagged recombinant full-length human p110β (GenBank, Accession No. NM_006219) and untagged recombinant full length human p85α (GenBank Accession No. XM—043865) were co-expressed in a Baculovirus infected Sf9 cell expression system. The ADP-Glo assay was performed to measure the amount of ADP generated from ATP hydrolysis coupled with PIP2 phosphorylation by the purified recombinant PI3Kβ (p110β/p85α). PI3Kβ was incubated with 20 μM PIP2 substrate in the reaction buffer (10 mM Tris-HCl, pH 7.5, 50 mM NaCl, 5 mM MgCl2, 10 μM ATP and 0.5% DMSO) for 90 minutes at room temperature. The ADP generated was then detected by ADP-Glo assay from Promega, a luminescent ADP detection assay. The ADP-Glo assay is performed in two steps; first, after the kinase reaction, ADP-Glo Reagent is added to terminate the kinase reaction and deplete the remaining ATP. Second, the Kinase Detection Reagent is added to simultaneously convert ADP to ATP and allow the newly synthesized ATP to be measured using a luciferase/luciferin reaction.

[15] = test system: OPM-2; assay: Cell proliferation assay (CellTiter-Glo); format: cell-based; conditions: Homo sapiens, Multiple Myeloma, 72 hours, 0.5% fetal bovine serum, read-out: antiproliferative activity IC50, OPM-2
Description: as §1, §2

[16] = test system: A549; assay: Cell proliferation assay (CellTiter-Glo); format: cell-based; conditions: Homo sapiens, NSCLC, 72 hours, 0.5% fetal bovine serum, read-out: antiproliferative activity IC50, A549
Description: as §1, §2

[17] = test system: H358; assay: Cell proliferation assay (CellTiter-Glo); format: cell-based; conditions: Homo sapiens, NCI-H358; NSCLC; 72 hours, 0.5% fetal bovine serum; read-out: antiproliferative activity IC50, H358
Description: as §1, §2

[18] = test system: H292; assay: Cell proliferation assay (CellTiter-Glo); format: cell-based; conditions: Homo sapiens, NCI-H292; NSCLC; 72 hours, 0.5% fetal bovine serum; read-out: antiproliferative activity IC50, H292
Description: as §1, §2

[19] = test system: H460; assay: Cell proliferation assay (CellTiter-Glo); format: cell-based; conditions: Homo sapiens, NCI-H460; NSCLC; 72 hours, 0.5% fetal bovine serum; read-out: antiproliferative activity IC50, H460
Description: as §1, §2

[20] = test system: H2122; assay: Cell proliferation assay (CellTiter-Glo); format: cell-based; conditions: Homo sapiens, NCI-H2122; NSCLC; 72 hours, 0.5% fetal bovine serum; read-out: antiproliferative activity IC50, H2122
Description: as §1, §2

[21] = test system: HCT116; assay: Cell proliferation assay (CellTiter-Glo); format: cell-based; conditions: Homo sapiens, HCT-116; Colon; 72 hours, 0.5% fetal bovine serum; read-out: antiproliferative activity IC50, HCT116
Description: as §1, §2

T1 sequence (P42336 whole entry): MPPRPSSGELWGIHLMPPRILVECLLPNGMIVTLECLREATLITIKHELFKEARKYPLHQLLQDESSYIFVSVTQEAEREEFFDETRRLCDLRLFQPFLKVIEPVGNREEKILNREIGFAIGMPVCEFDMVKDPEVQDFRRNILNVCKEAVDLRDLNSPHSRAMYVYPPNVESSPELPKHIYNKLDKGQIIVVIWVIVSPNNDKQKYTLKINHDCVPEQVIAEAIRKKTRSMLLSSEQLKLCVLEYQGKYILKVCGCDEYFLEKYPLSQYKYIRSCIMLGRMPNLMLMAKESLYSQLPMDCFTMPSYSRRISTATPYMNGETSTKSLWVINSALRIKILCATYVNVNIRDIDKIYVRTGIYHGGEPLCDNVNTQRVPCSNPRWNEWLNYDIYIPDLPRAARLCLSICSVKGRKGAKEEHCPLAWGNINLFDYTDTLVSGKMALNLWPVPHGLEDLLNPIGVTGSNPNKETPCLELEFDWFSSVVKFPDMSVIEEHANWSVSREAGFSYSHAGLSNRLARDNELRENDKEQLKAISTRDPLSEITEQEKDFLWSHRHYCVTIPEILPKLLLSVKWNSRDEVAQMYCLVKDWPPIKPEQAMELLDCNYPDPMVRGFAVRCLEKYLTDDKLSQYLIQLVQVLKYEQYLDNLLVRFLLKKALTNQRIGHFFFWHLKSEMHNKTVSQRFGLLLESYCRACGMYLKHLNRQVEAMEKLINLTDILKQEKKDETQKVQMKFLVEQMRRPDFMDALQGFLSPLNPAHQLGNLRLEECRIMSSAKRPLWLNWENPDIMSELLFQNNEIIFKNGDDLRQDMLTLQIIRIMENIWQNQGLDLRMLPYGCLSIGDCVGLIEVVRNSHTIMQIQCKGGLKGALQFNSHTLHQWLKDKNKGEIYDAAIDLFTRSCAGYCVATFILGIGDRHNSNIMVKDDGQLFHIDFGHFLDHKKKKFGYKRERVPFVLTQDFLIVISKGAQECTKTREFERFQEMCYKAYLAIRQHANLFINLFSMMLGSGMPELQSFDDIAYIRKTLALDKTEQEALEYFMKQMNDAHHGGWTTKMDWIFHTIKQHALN
T1 sequence (P27986 whole entry partner): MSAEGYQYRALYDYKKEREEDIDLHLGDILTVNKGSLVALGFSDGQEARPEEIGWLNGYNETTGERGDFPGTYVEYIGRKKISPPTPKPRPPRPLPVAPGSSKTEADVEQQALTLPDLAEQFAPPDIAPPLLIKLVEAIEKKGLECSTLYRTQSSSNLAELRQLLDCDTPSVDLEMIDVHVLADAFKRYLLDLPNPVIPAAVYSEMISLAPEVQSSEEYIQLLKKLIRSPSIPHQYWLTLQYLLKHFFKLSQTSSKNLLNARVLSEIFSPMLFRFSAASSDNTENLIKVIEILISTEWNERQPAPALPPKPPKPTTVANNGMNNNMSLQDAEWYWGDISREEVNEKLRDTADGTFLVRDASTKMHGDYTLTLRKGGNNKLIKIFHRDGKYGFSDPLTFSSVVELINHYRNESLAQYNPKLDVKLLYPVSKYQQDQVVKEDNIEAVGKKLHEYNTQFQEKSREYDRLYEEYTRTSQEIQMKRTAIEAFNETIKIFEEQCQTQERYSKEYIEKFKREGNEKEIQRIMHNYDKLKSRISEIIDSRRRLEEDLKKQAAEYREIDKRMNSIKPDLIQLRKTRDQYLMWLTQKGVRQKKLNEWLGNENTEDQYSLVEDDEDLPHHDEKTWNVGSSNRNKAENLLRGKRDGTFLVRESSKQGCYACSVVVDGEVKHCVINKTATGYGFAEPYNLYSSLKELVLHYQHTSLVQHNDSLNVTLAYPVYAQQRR
T3 sequence (P42338 whole entry): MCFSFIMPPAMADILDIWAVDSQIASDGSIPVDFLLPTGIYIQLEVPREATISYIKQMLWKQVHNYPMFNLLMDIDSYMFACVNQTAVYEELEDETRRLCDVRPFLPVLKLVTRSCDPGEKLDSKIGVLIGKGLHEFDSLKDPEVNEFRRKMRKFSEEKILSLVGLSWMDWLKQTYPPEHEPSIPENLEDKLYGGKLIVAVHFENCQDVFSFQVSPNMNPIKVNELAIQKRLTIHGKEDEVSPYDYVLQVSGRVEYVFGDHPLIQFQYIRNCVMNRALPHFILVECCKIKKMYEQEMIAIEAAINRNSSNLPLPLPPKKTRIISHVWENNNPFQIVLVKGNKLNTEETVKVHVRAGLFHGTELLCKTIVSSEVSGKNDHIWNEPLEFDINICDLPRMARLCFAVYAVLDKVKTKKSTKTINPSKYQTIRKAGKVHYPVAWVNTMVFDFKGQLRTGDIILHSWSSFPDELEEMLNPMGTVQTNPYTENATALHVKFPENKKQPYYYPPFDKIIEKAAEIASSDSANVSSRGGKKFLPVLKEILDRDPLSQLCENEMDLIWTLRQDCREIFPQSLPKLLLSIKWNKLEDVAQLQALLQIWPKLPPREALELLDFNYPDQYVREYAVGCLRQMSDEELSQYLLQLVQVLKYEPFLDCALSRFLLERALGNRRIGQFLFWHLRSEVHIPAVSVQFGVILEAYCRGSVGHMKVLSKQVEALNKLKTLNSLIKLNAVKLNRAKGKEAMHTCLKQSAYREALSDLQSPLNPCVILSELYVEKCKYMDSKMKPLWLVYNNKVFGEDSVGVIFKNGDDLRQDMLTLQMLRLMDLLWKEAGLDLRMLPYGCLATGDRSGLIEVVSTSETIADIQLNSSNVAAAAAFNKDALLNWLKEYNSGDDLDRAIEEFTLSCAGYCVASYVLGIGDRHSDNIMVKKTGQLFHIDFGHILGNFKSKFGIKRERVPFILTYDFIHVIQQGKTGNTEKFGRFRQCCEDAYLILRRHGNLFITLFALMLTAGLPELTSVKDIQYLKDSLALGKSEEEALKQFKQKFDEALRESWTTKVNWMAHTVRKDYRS
T3 sequence (P27986 whole entry partner): as the sequence (P27986 whole entry partner) above

Compound | IC50 [2] | IC50 [5] | IC50 [7] | IC50 [10] | IC50 [11] | IC50 [13] | melting point | IC50 [15] | also measured
Cn1c(=O)n(-c2ccc(C(C)(C)C#N)cc2)c2c3cc(-c4cnc5ccccc5c4)ccc3ncc21 [BEZ-235, 2-methyl-2-(4-(3-methyl-2-oxo-8-(quinolin-3-yl)-2,3-dihydro-1H-imidazo[4,5-c]quinolin-1-yl)phenyl)propanenitrile, reference compound] | 1000 to 10000 nM | 100 to 1000 nM | 1000 to 10000 nM |  |  |  |  |  | IC50 [1]: 100 to 1000 nM; IC50 [3]: 1000 to 10000 nM; IC50 [4]: 10 to 100 nM; IC50 [6]: > 10000 nM; IC50 [8]: 1000 to 10000 nM; IC50 [9]: 1000 to 10000 nM
CC(c1cc2nc(-c3cccc4[nH]ncc34)nc(N3CCOCC3)c2s1)N(C)c1ncc(C(=O)NO)cn1 (centres unmarked) [Compound 70] |  |  |  | < 100 nM | < 100 nM | 100 to 1000 nM |  |  | IC50 [12]: 10 to 100 nM
O=C(NO)c1cnc(N(CCO)Cc2cc3nc(-c4cccc5[nH]ncc45)nc(N4CCOCC4)c3s2)nc1 [Compound 86, 2-(((2-(1H-indazol-4-yl)-4-morpholinothieno[3,2-d]pyrimidin-6-yl)methyl)(2-hydroxyethyl)amino)-N-hydroxypyrimidine-5-carboxamide] |  |  |  | < 100 nM | < 100 nM |  | 190 to 194 °C |  | IC50 [14]: < 100 nM
CN(Cc1cc2nc(-c3ccc(N)nc3)nc(N3CCOCC3)c2s1)c1ncc(C(=O)NO)cn1 [Compound 110, 2-(((2-(6-aminopyridin-3-yl)-4-morpholinothieno[3,2-d]pyrimidin-6-yl)methyl)(methyl)amino)-N-hydroxypyrimidine-5-carboxamide] | 10 to 100 nM | 10 to 100 nM |  | < 100 nM | < 100 nM | < 100 nM | 175 to 181 °C | < 10 nM | 
CN(Cc1cc2nc(-c3cnc(N)nc3)nc(N3CCOCC3)c2s1)c1ncc(C(=O)NO)cn1 [Compound 115, 2-(((2-(2-aminopyrimidin-5-yl)-4-morpholinothieno[3,2-d]pyrimidin-6-yl)methyl)(methyl)amino)-N-hydroxypyrimidine-5-carboxamide] | 100 to 1000 nM | 10 to 100 nM |  | < 100 nM | < 100 nM | < 100 nM | 175 to 181 °C | 10 to 100 nM | IC50 [16]: 10 to 100 nM
CN(Cc1cc2nc(-c3cccc(CO)c3)nc(N3CCOCC3)c2s1)c1ncc(C(=O)NO)cn1 [Compound 138, N-hydroxy-2-(((2-(3-(hydroxymethyl)phenyl)-4-morpholinothieno[3,2-d]pyrimidin-6-yl)methyl)(methyl)amino)pyrimidine-5-carboxamide] | 10 to 100 nM | 10 to 100 nM | 10 to 100 nM | < 100 nM | < 100 nM | < 100 nM | 160 to 164 °C | < 10 nM | IC50 [1]: 10 to 100 nM; IC50 [3]: 10 to 100 nM; IC50 [4]: 10 to 100 nM; IC50 [6]: 10 to 100 nM; IC50 [8]: 10 to 100 nM; IC50 [9]: 10 to 100 nM
C[C@H](O)c1cccc(-c2nc(N3CCOCC3)c3sc(CN(C)c4ncc(C(=O)NO)cn4)cc3n2)c1 [Compound 296, (S)—N-Hydroxy-2-(((2-(3-(1-hydroxyethyl)phenyl)-4-morpholinothieno[3,2-d]pyrimidin-6-yl)methyl)(methyl)amino)pyrimidine-5-carboxamide] | < 10 nM | 10 to 100 nM | 10 to 100 nM | 100 to 1000 nM | < 100 nM | > 10000 nM | 168 to 172 °C |  | IC50 [17]: 10 to 100 nM; IC50 [16]: 10 to 100 nM; IC50 [18]: 10 to 100 nM; IC50 [19]: 10 to 100 nM; IC50 [20]: 10 to 100 nM; IC50 [21]: < 10 nM
